For test [1], the target named is Vascular endothelial growth factor receptor 2 (Homo sapiens, UniProt P35968). Put plainly: Inhibition of VEGFR2 (unknown origin).
Test [2] has as its system CT26. Put plainly: Antitumor activity against mouse CT26 cells in BALB/c mouse assessed as reduction in tumour volume at 200 mg/kg, ILES daily measured after 15 days relative to control. As to conditions: time 15 day. Further details: scale not given: the % may be the effect or the level left. The class given is functional.
A further test relates to HCT-116. Put plainly: Antiproliferative activity against human HCT-116 cells assessed as cell growth inhibition. The format is functional, cell-based.
Test [3] relates to CT26. Put plainly: Antitumor activity against mouse CT26 cells in BALB/c mouse assessed as reduction in tumour weight at 200 mg/kg, ILES daily measured after 15 days relative to control. Further details: scale not given: the % may be the effect or the level left. The note with it: time 15 day. The format is functional.
The subject of another test is LXFL 529. Put plainly: Antiproliferative activity against human LXFL 529 cells assessed as cell growth inhibition. The format is functional, cell-based.
Test [4] concerns the target Proto-oncogene tyrosine-protein kinase Src (Homo sapiens, UniProt P12931). The test can be described thus: Inhibition of c-SRC in human MDA-MB-468 cells in presence of [gamma-32P]ATP and ATP by immunoprecipitation method. The format is cell-based.
A short description of test [5]: Antitumor activity against human PDAC cells xenografted in BALB/c nu/nu mouse assessed as reduction in tumour weight at 40 mg/kg, ip treated every other day for 6 days relative to control. The format is functional. Details: scale not given: the % may be the effect or the level left. The note with it: time 6 day. (In general: A xenograft is tissue or cells of one species grown in another, often human tumour cells in immunodeficient mice.)

The test system of another test is MeWo. The test can be described thus: Antitumor activity against human MeWo cells xenografted in mouse assessed as reduction in tumour volume at 50 mg/kg per day, po administered via oral gavage measured after 14 days relative to control. The class given is functional. Further details: scale not given: the % may be the effect or the level left. The note with it: time 14 day.

The next test relates to K562. Put plainly: Antitumor activity against human K562 cells xenografted in BALB/c mouse assessed as reduction in tumour volume at 6 mg/kg, ip treated every other day for 2 weeks relative to control. The format is functional. Further details: scale not given: the % may be the effect or the level left.
Another test has as its system K-562R. The test can be described thus: Antiproliferative activity against imatinib-resistant human K-562R cells assessed as cell growth inhibition measured after 72 hrs by MTT assay. The class given is functional, cell-based. A general note: Formazan colour is commonly taken as a measure of viable cells.
Test [6] can be described thus: Antiproliferative activity against human TT cells assessed as cell growth inhibition measured after 72 hrs by EZ-CyTox reagent based analysis. The format is functional.
Test [7] can be described thus: Antitumor activity against human TT cells xenografted in BALB/c nu/nu mouse assessed as reduction in tumour weight at 40 mg/kg per day, po administered via oral gavage daily measured after 21 days relative to control. Details: scale not given: the % may be the effect or the level left. The class given is functional. As to conditions: time 21 day.
The next test relates to PC-3. Put plainly: Antiproliferative activity against human PC-3 cells assessed as cell growth inhibition. The class given is functional.
The next test relates to SNU-638. Put plainly: Antiproliferative activity against human SNU-638 cells assessed as cell growth inhibition. The format is functional.
Test [8] deals with MV4-11. Put plainly: Antiproliferative activity against human MV4-11 cells assessed as cell growth inhibition. The class given is functional.
For test [9], the system named is MV4-11. The test can be described thus: Antitumor activity against human MV4-11 cells xenografted in mouse assessed as reduction in tumour volume at 10 mg/kg per day, iv measured after 21 days relative to control. The format is functional. Further details: scale not given: the % may be the effect or the level left. As to conditions: time 21 day.
The test system of the next test is A2058. The test can be described thus: Antitumor activity against human A2058 cells xenografted in BALB/c mouse assessed as reduction in tumour volume at 50 mg/kg per day, po administered via oral gavage treated every other day for 14 days relative to control. The format is functional. Further details: scale not given: the % may be the effect or the level left. As to conditions: time 14 day.

The nature of test [10]: Antitumor activity against mouse 4T1-Luc cells xenografted in BALB/c mouse assessed as decrease in lung metastasis at 1 mg/kg, iv measured after 8 days […]. The format is functional. Further details: scale not given: the % may be the effect or the level left. As to conditions: time 8 day. (In a reporter assay the amount or activity of a reporter protein is the signal.)

For the next test, the system named is MCF7. The test can be described thus: Antiproliferative activity against human MCF7 cells assessed as cell growth inhibition at 10 uM by crystal violet staining based assay relative to control. The format is functional. Details: scale not given: the % may be the effect or the level left.

Chain of Vascular endothelial growth factor receptor 2 (P35968 whole entry): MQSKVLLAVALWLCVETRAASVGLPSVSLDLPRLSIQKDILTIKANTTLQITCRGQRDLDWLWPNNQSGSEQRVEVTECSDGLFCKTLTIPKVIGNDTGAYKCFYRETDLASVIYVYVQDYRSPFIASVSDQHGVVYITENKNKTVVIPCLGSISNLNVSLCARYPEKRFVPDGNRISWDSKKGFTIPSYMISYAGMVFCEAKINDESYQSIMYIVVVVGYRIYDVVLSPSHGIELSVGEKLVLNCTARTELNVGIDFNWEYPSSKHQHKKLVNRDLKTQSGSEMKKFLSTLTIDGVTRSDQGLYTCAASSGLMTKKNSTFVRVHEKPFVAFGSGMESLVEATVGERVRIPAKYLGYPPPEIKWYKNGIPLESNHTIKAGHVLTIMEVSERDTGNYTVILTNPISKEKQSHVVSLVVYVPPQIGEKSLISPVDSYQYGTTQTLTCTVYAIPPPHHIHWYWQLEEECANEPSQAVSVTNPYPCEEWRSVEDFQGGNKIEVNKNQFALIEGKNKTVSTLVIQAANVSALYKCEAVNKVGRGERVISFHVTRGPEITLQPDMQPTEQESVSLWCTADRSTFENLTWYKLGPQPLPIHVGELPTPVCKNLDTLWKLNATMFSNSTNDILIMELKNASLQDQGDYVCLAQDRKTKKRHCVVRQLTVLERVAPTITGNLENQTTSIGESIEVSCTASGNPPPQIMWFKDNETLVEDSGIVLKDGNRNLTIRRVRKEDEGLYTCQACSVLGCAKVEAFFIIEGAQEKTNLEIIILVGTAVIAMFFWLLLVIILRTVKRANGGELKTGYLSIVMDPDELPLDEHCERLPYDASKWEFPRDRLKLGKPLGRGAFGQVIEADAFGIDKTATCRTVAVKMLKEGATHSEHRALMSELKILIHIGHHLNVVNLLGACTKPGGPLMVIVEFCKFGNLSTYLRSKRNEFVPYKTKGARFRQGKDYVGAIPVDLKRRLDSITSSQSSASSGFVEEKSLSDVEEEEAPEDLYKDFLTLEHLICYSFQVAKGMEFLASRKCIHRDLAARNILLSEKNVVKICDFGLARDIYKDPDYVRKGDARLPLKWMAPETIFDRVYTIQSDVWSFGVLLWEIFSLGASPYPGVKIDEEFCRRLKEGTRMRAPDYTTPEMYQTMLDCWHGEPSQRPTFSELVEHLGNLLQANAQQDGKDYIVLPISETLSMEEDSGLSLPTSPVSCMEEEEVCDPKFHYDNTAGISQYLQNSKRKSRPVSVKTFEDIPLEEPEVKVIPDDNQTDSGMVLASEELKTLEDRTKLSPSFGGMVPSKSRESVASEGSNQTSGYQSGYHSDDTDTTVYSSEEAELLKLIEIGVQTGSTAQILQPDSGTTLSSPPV
Chain of Proto-oncogene tyrosine-protein kinase Src (P12931 2-536 limits assumed): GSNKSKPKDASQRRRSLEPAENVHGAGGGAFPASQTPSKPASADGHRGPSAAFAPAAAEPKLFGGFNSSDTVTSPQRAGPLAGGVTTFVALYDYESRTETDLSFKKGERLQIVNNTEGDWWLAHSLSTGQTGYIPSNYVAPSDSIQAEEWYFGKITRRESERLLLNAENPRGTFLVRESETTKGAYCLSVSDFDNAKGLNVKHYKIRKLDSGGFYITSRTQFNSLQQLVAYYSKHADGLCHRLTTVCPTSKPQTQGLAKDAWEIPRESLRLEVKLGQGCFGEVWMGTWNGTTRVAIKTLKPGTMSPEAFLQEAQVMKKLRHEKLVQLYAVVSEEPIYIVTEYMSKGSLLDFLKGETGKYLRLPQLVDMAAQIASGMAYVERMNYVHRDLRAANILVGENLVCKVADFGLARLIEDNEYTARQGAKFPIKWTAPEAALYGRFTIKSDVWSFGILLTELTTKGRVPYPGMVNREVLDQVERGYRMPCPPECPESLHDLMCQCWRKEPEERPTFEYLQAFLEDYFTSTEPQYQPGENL

The IC50 is the concentration that gives 50% inhibition. For `O=C1Nc2ccccc2/C1=C1/Nc2ccccc2/C1=N\OCC(O)CO` (centres undefined), the IC50 in test [1] is 950 nM; in the test on HCT-116 it was below 100 nM; in the test on LXFL 529, 900 nM; in [4], 950 nM. Besides, the Activity is listed as 49.3% in the test with CT26 [2] and 46.8% with CT26 [3].

Take `COc1ccc2c(c1)/C(=C1/Nc3ccccc3/C1=N\O)C(=O)N2`: the Activity in [5] amounted to 60%.

For the compound `Cl.Cl.O=C1Nc2c(Br)cccc2/C1=C1/Nc2ccccc2/C1=N\OCCN1CCNCC1`, the Activity in the test on MeWo turned out to be 37%.

As to `O=C1Nc2ccc([N+](=O)[O-])cc2/C1=C1/Nc2ccc(O)cc2/C1=N\O`, the Activity in the test on K562 is listed as 90%. Also, in the test with K-562R, the IC50 was determined as 783 nM.

The GI50 is the concentration at which growth is held to half of that of the control. Consider `Cl.O=C1Nc2ccccc2/C1=C1/Nc2ccccc2/C1=N\OCCN1CCNCC1`, for which the GI50 in test [6] came to 68200 nM. Besides, the Activity in [7] turned out to be 62.5%.

`COC(=O)c1ccc2c(c1)/C(=C1/Nc3ccccc3/C1=N\OCCN1CCNCC1)C(=O)N2.Cl.Cl`: the GI50 in the test with PC-3 was 1100 nM; in the test with SNU-638 it was 2250 nM; in the test with MV4-11 [8], 1.2 nM. The Activity in the test on MV4-11 [9] amounted to 100%.

`O=C1Nc2cc(Br)ccc2/C1=C1/Nc2ccccc2/C1=N\O` [6BIO]: the figures for the Activity (with A2058; in [10]; with MCF7) were 80%, 80% and 75%, respectively.

(Values after ChEMBL document CHEMBL5149994, “Anticancer potential of indirubins in medicinal chemistry: Biological activity, structural modification, and structure-activity relationship” (Eur J Med Chem, 2021).)
